ChEMBL document CHEMBL1201862, “PubChem BioAssay data set” (2004)
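Five compound concentrations were applied to cells in 96-well plates for 48 hours; endpoints were derived by simple linear interpolation of the resulting dose-response curve. GI50 = concentration required for 50% inhibition of growth.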 Calls of active or inactive are those of the source. No stated cut-off is given here; in the data, active = GI50 up to about 1.1 µM and inactive = higher.

How the values were obtained:
Experiment in all cases: inhibition of tumour cell growth, NCI panel, 48 h
SK-MEL-28 = system: SK-MEL-28
MDA-N = system: MDA-N
TK-10 = system: TK-10
SW-620 = system: SW-620
RXF 393 = system: RXF 393
Hs-578T = system: Hs-578T
COLO 205 = system: COLO 205
CCRF-CEM = system: CCRF-CEM
MDA-MB-231 = system: MDA-MB-231
NCI-H23 = system: NCI-H23
MOLT-4 = system: MOLT-4
M14 = system: M14
HT-29 = system: HT-29
A549 = system: A549
HCT-116 = system: HCT-116
OVCAR-5 = system: OVCAR-5
IGROV-1 = system: IGROV-1
HOP-62 = system: HOP-62
MCF7 = system: MCF7

Measured: GI50

COC(=O)c1c(C(=O)OC)c2ccccn2c1-c1cc(OC)c(Br)c(=O)o1
inactive: SK-MEL-28 > 100 µM | MDA-N > 100 µM | TK-10 > 100 µM | SW-620 > 100 µM | RXF 393 > 100 µM | Hs-578T 37.2 µM | COLO 205 > 100 µM | CCRF-CEM > 100 µM | MDA-MB-231 83.8 µM | NCI-H23 > 100 µM | MOLT-4 > 100 µM | M14 > 100 µM | HT-29 > 100 µM | A549 > 100 µM | HCT-116 > 100 µM | OVCAR-5 > 100 µM | IGROV-1 > 100 µM | HOP-62 > 100 µM

CSC(Cc1ccc2c(c1)Sc1ccccc1O2)=[N+]1CCOCC1
inactive: SK-MEL-28 80.7 µM | MCF7 40.2 µM | MDA-N 54.5 µM | TK-10 > 100 µM | SW-620 > 100 µM | RXF 393 37.6 µM | Hs-578T 30.7 µM | COLO 205 > 100 µM | MDA-MB-231 > 100 µM | NCI-H23 40.7 µM | MOLT-4 35.7 µM | M14 72.9 µM | HT-29 43.9 µM | A549 63.8 µM | HCT-116 41.4 µM | OVCAR-5 > 100 µM | IGROV-1 48.6 µM | HOP-62 > 100 µM

Cc1ccccc1/N=C/c1ccc(N(CCC#N)S(=O)(=O)c2ccccc2)cc1
inactive: SK-MEL-28 > 100 µM | TK-10 > 100 µM | SW-620 > 100 µM | RXF 393 > 100 µM | COLO 205 > 100 µM | CCRF-CEM > 100 µM | NCI-H23 > 100 µM | MOLT-4 > 100 µM | M14 > 100 µM | HT-29 > 100 µM | A549 > 100 µM | HCT-116 > 100 µM | OVCAR-5 > 100 µM | IGROV-1 > 100 µM | HOP-62 > 100 µM

CC12CCc3ccccc3C1=NNC(=O)C2 (stereo not drawn)
inactive: SK-MEL-28 > 100 µM | TK-10 > 100 µM | SW-620 > 100 µM | RXF 393 > 100 µM | COLO 205 > 100 µM | CCRF-CEM > 100 µM | NCI-H23 > 100 µM | MOLT-4 > 100 µM | M14 > 100 µM | HT-29 > 100 µM | A549 > 100 µM | HCT-116 > 100 µM | OVCAR-5 > 100 µM | IGROV-1 > 100 µM | HOP-62 > 100 µM

CC1=C(c2cc(C(=O)Nc3cccc(C(F)(F)F)c3)nc(NC#N)n2)Sc2ccccc2N1
inactive: SK-MEL-28 > 100 µM | TK-10 > 100 µM | SW-620 > 100 µM | RXF 393 > 100 µM | COLO 205 > 100 µM | CCRF-CEM 68.7 µM | NCI-H23 > 100 µM | MOLT-4 > 100 µM | M14 > 100 µM | HT-29 > 100 µM | A549 > 100 µM | HCT-116 > 100 µM | OVCAR-5 > 100 µM | IGROV-1 > 100 µM | HOP-62 > 100 µM

CCOC(=O)c1c(-c2ccccc2)oc(-c2ccccc2)c1C(=O)OCC
inactive: SK-MEL-28 > 100 µM | TK-10 > 100 µM | SW-620 > 100 µM | RXF 393 > 100 µM | COLO 205 99.1 µM | CCRF-CEM 41.1 µM | NCI-H23 89.3 µM | MOLT-4 48.1 µM | M14 > 100 µM | HT-29 22.6 µM | A549 > 100 µM | HCT-116 > 100 µM | OVCAR-5 > 100 µM | IGROV-1 > 100 µM | HOP-62 > 100 µM

Cc1ccc2c(c1)C(c1cccc3ccccc13)OC2=O (stereo not drawn)
inactive: SK-MEL-28 > 100 µM | TK-10 31.6 µM | SW-620 > 100 µM | RXF 393 27.8 µM | COLO 205 > 100 µM | CCRF-CEM > 100 µM | NCI-H23 75.9 µM | MOLT-4 > 100 µM | M14 41 µM | HT-29 > 100 µM | A549 89.3 µM | HCT-116 > 100 µM | OVCAR-5 > 100 µM | IGROV-1 > 100 µM | HOP-62 21.4 µM

O=C1/C(=C\c2ccc([N+](=O)[O-])cc2)Sc2scc(-c3ccc(O)c(O)c3)[n+]21
inactive: SK-MEL-28 12.3 µM | MCF7 3.56 µM | MDA-N 5.41 µM | TK-10 2.26 µM | SW-620 3.4 µM | Hs-578T 14.7 µM | COLO 205 2.34 µM | CCRF-CEM 2.68 µM | MDA-MB-231 10.9 µM | NCI-H23 14.9 µM | MOLT-4 2.62 µM | M14 5.81 µM | HT-29 3.31 µM | A549 17.6 µM | HCT-116 4.2 µM | OVCAR-5 15.3 µM | IGROV-1 5.11 µM | HOP-62 13.4 µM

CCC(c1ccc(N(C)C)cc1)C1NC(=S)NC1=O (stereo not drawn)
inactive: SK-MEL-28 > 100 µM | MCF7 > 100 µM | MDA-N 59.7 µM | TK-10 85.5 µM | SW-620 68.9 µM | RXF 393 > 100 µM | Hs-578T > 100 µM | COLO 205 98.2 µM | CCRF-CEM 48.9 µM | MDA-MB-231 > 100 µM | NCI-H23 > 100 µM | MOLT-4 30.7 µM | M14 74.8 µM | HT-29 57.1 µM | A549 > 100 µM | HCT-116 47 µM | OVCAR-5 > 100 µM | IGROV-1 58.3 µM

CCOC(=O)Cc1nnc2n(-c3ccccc3)c(=O)c3ccccc3n12
inactive: SK-MEL-28 55.7 µM | MCF7 > 100 µM | MDA-N > 100 µM | TK-10 > 100 µM | SW-620 > 100 µM | RXF 393 > 100 µM | COLO 205 83.8 µM | CCRF-CEM > 100 µM | MDA-MB-231 > 100 µM | NCI-H23 > 100 µM | MOLT-4 > 100 µM | M14 > 100 µM | HT-29 > 100 µM | A549 > 100 µM | HCT-116 90.8 µM | OVCAR-5 > 100 µM | IGROV-1 > 100 µM | HOP-62 62.4 µM

Cc1ccc(C)c(COCCOCn2c(=O)[nH]c(=O)c3cc(Br)ccc32)c1
inactive: SK-MEL-28 39.5 µM | MCF7 > 100 µM | MDA-N > 100 µM | TK-10 55.3 µM | SW-620 > 100 µM | RXF 393 > 100 µM | COLO 205 > 100 µM | CCRF-CEM > 100 µM | MDA-MB-231 66.4 µM | NCI-H23 > 100 µM | MOLT-4 > 100 µM | M14 > 100 µM | HT-29 98.2 µM | A549 > 100 µM | HCT-116 > 100 µM | OVCAR-5 > 100 µM | IGROV-1 60.3 µM | HOP-62 41.7 µM

CC(C)NC(=O)CCN(C(=O)O)S(=O)(=O)c1ccc(NC(=O)c2ccccc2)cc1
inactive: SK-MEL-28 > 100 µM | TK-10 > 100 µM | SW-620 27.7 µM | RXF 393 > 100 µM | COLO 205 > 40.6 µM | CCRF-CEM > 43.9 µM | NCI-H23 > 100 µM | MOLT-4 > 41.2 µM | M14 > 100 µM | HT-29 > 58.1 µM | A549 > 50.1 µM | HCT-116 > 39.7 µM | OVCAR-5 > 100 µM | IGROV-1 > 100 µM | HOP-62 > 100 µM
